# Laboratory results as given in patent publication US9695155B2, “Herbicidal substituted pyrimidinyloxy benzene compounds” (E. I. DU PONT DE NEMOURS AND COMPANY, priority 2013, dated 2017).
# What was measured:
# [1] = tested on: Russian thistle; test: Test D postemergence; assay type: in vivo, Salsola kali
# Text: (§1) Seeds of plant species selected from bluegrass (annual bluegrass, Poa annua), blackgrass (Alopecurus myosuroides), canarygrass (littleseed canarygrass, Phalaris minor), chickweed (common chickweed, Stellaria media), galium (catchweed bedstraw, Galium aparine), bromegrass, downy (downy bromegrass, Bromus tectorum), field poppy (Papaver rhoeas), field violet (Viola arvensis), green foxtail (Setaria viridis), deadnettle (henbit deadnettle, Lamium amplexicaule), Italian ryegrass (Lolium multiflorum), kochia (Kochia scoparia), lambsquarters (Chenopodium album), oilseed rape (Brassica napus), pigweed (Amaranthus retroflexus), chamomile (scentless chamomile, Matricaria inodora), Russian thistle (Salsola kali), speedwell (bird's-eye speedwell, Veronica persica), spring barley (Hordeum vulgare), spring wheat (Triticum aestivum), wild buckwheat (Polygonum convolvulus), wild mustard (Sinapis arvensis), wild oat (Avena fatua), wild radish (Raphanus raphanistrum), windgrass (Apera spica-venti), winter barley (Hordeum vulgare), and winter wheat (Triticum aestivum) were planted into a silt loam soil and treated preemergence with test chemicals formulated in a non-phytotoxic solvent mixture which included a surfactant.
# (§2) At the same time, these species were planted in pots containing Redi-Earth® planting medium (Scotts Company, 14111 Scottslawn Road, Marysville, Ohio 43041) comprising spaghnum peat moss, vermiculite, wetting agent and starter nutrients and treated with postemergence applications of the test chemicals formulated in the same manner. Plants ranged in height from 2 to 18 cm (1- to 4-leaf stage). Treated plants and controls were maintained in a controlled growth environment for 7 to 21 days after which time all species were compared to controls and visually evaluated. Plant response ratings, summarized in Table D, are based on a scale of 0 to 100 where 0 is no effect and 100 is complete control. A dash (-) response means no test result.
# [2] = tested on: Russian thistle; test: Test D preemergence; assay type: in vivo, Salsola kali; design: key: 0 = no effect, 100 = complete control
# Text: as §1, §2
# [3] = tested on: waterhemp_RES1 (ALS & Triazine resistant common waterhemp); test: Test E postemergence; assay type: in vivo, Amaranthus rudis
# Procedure, shortened: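 Compound in a non-phytotoxic solvent mixture with surfactant was applied preemergence to seeds in silt loam soil, or postemergence to plants 2 to 18 cm tall grown in peat-based potting medium. Plants were kept in a greenhouse for 14 to 21 days, then rated visually against untreated controls on a 0 (no effect) to 100 (complete control) scale.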
# [4] = tested on: windgrass; test: Test C postemergence; assay type: in vivo, Apera spica-venti; details: for Plant response rating (0 to 100), Windgrass: postemergence; for Plant response rating, Windgrass: Postemergence, scale 0 to 100 (0 no effect, 100 complete control)
# Text: (§3) Seeds of plant species selected from blackgrass (Alopecurus myosuroides), Italian ryegrass (Lolium multiflorum), wheat, winter (winter wheat, Triticum aestivum), galium (catchweed bedstraw, Galium aparine), corn (Zea mays), large (Lg) crabgrass (Digitaria sanguinalis), giant foxtail (Setaria faberii), johnsongrass (Sorghum halepense), lambsquarters (Chenopodium album), morningglory (Ipomoea coccinea), yellow nutsedge (Cyperus esculentus), pigweed (Amaranthus retroflexus), ragweed (common ragweed, Ambrosia elatior), soybean (Glycine max), barnyardgrass (Echinochloa crus-galli), oilseed rape (Brassica napus), waterhemp (common waterhemp, Amaranthus rudis), kochia (Kochia scoparia), wild oat (Avena fatua), surinam grass (Brachiaria decumbens), foxtail, green (green foxtail, Setaria viridis), goosegrass (Eleusine indica), bromegrass, downy (downy bromegrass, Bromus tectorum), nightshade (eastern black nightshade, Solanum ptycanthum), cocklebur (common cocklebur, Xanthium strumarium), cupgrass, woolly (woolly cupgrass, Eriochloa villosa), bermudagrass (Cynodon dactylon), sunflower, (common oilseed sunflower, Helianthus annuus), Russian thistle (Salsola kali), and velvetleaf (Abutilon theophrasti) were planted into a blend of loam soil and sand and treated preemergence with test chemicals formulated in a non-phytotoxic solvent mixture which included a surfactant.
# (§4) At the same time, plants selected from these crop and weed species and also barley, winter (winter barley, Hordeum vulgare), windgrass (Apera spica-venti), chickweed (common chickweed, Stellaria media), deadnettle (henbit deadnettle, Lamium amplexicaule), and canarygrass (littleseed canarygrass, Phalaris minor) were planted in pots containing Redi-Earth® planting medium (Scotts Company, 14111 Scottslawn Road, Marysville, Ohio 43041) comprising spaghnum peat moss, vermiculite, wetting agent and starter nutrients and treated with postemergence applications of test chemicals formulated in the same manner. Plants ranged in height from 2 to 18 cm (1- to 4-leaf stage) for postemergence treatments. Treated plants and controls were maintained in a greenhouse for 13 to 15 days, after which time all species were compared to controls and visually evaluated. Plant response ratings, summarized in Table C, are based on a scale of 0 to 100 where 0 is no effect and 100 is complete control. A dash (-) response means no test result.
# [5] = tested on: nightshade; test: Test C preemergence; assay type: in vivo, Solanum ptycanthum; details: for Nightshade plant response rating: preemergence, scale 0 (no effect) to 100 (complete control); for Plant response rating, Nightshade: Preemergence, 31 g ai/ha, scale 0 to 100, 0 no effect, 100 complete control
# Text: as §3, §4
# [6] = tested on: barley, winter; test: Test C postemergence; assay type: in vivo, Hordeum vulgare; details: for Plant response rating (0 to 100), Barley: postemergence; for Plant response rating, Barley: Postemergence, scale 0 to 100 (0 no effect, 100 complete control)
# Text: as §3, §4
# [7] = 31 g ai/ha, scale 0 to 100 (0 no effect, 100 complete control)
# [8] = 62 g ai/ha, scale 0 to 100 (0 no effect, 100 complete control)
# [9] = 125 g ai/ha, scale 0 to 100 (0 no effect, 100 complete control)
# [10] = 250 g ai/ha, scale 0 to 100 (0 no effect, 100 complete control)
# [11] = 31 g ai/ha, scale 0 (no effect) to 100 (complete control)
# [12] = Postemergence, 31 g ai/ha, scale 0 to 100
# [13] = Postemergence, 62 g ai/ha, scale 0 to 100
# [14] = Postemergence, 125 g ai/ha, scale 0 to 100
# [15] = Postemergence, 250 g ai/ha, scale 0 to 100
# [16] = postemergence, 16 g ai/ha, scale 0 to 100, 0 no effect, 100 complete control
# [17] = postemergence, 8 g ai/ha, scale 0 to 100, 0 no effect, 100 complete control
Compound,"Plant response rating, Russian Thistle ([1]; 16 g ai/ha, scale 0-100)","Plant response rating, Russian Thistle [1, 7]","Plant response rating, Russian Thistle [1, 8]","Plant response rating, Russian Thistle [1, 9]","Plant response rating, Russian Thistle [1, 10]","Plant response rating, Russian Thistle [2, 11]","Plant response rating, Russian Thistle ([2]; 62 g ai/ha, scale 0-100)","Plant response rating, Russian Thistle ([2]; 125 g ai/ha, scale 0-100)","Plant response rating, Russian Thistle ([2]; 250 g ai/ha, scale 0-100)","Plant response rating, Waterhemp_RES1 [3, 12]","Plant response rating, Waterhemp_RES1 [3, 13]","Plant response rating, Waterhemp_RES1 [3, 14]","Plant response rating, Waterhemp_RES1 [3, 15]","Plant response rating, Waterhemp_RES1 [3, 16]","Plant response rating (0 to 100), Windgrass ([4]; 125 g ai/ha)","Plant response rating (0 to 100), Windgrass ([4]; 250 g ai/ha)","Plant response rating, Windgrass ([4]; 31 g ai/ha, 13 to 15 days)","Plant response rating, Windgrass ([4]; 62 g ai/ha)",Nightshade plant response rating ([5]; 62 g ai/ha),Nightshade plant response rating ([5]; 125 g ai/ha),also measured
Clc1cnc(Oc2ccccc2-n2cc(Cl)cn2)nc1 [Compound 3],0,10,10,10,20,0,30,40,40,–,–,–,–,–,–,–,–,–,–,–,"Plant response rating, Russian Thistle ([2]; 16 g ai/ha, scale 0 (no effect) to 100 (complete control)): 0"
"N#Cc1cccc(Oc2ncc(Br)cn2)c1-n1cc(C(F)(F)F)cn1 [Compound 59, 3-[(5-bromo-2-pyrimidinyl)oxy]-2-[4-(trifluoromethyl)-1H-pyrazol-1-yl]benzonitrile]",–,–,–,–,–,–,–,–,–,80,90,95,100,70,–,–,–,–,–,–,–
FC(F)(F)c1cnn(-c2ccccc2Oc2ncc(Cl)cn2)c1 [Compound 16],–,–,–,–,–,–,–,–,–,50,60,75,95,50,50,50,30,40,65,80,"Nightshade plant response rating ([5]; 250 g ai/ha): 98; Plant response rating, Nightshade [5]: 20; Plant response rating (0 to 100), Barley ([6]; 125 g ai/ha): 10; Plant response rating (0 to 100), Barley ([6]; 250 g ai/ha): 35; Plant response rating, Barley ([6]; 31 g ai/ha, 13 to 15 days): 0; Plant response rating, Barley ([6]; 62 g ai/ha): 5"
"N#Cc1cccc(Oc2ncc(Cl)cn2)c1-n1cc(C(F)(F)F)cn1 [Compound 58, 3-[(5-chloro-2-pyrimidinyl)oxy]-2-[4-(trifluoromethyl)-1H-pyrazol-1-yl]benzonitrile]",–,–,–,–,–,–,–,–,–,80,95,95,100,80,–,–,–,–,–,–,–
N#Cc1cccc(Oc2ncc(Cl)cn2)c1-n1cc(-n2ccc(C(F)(F)F)n2)cn1 [Compound 284],–,–,75,85,95,0,–,20,30,–,–,–,–,–,–,–,–,–,–,–,"Plant response rating, Russian Thistle ([1]; 31 g ai/ha, scale 0-100): 65"
Clc1cnc(Oc2cccc(Br)c2-n2cc(Br)cn2)nc1 [Compound 65],–,–,–,–,–,–,–,–,–,85,90,98,–,70,–,–,–,–,–,–,"Plant response rating, Waterhemp_RES1 [3, 17]: 65"
"Fc1cnc(Oc2ccccc2-n2cc(Br)cn2)nc1 [Compound 10, 2-[2-(4-bromo-1H-pyrazol-1-yl)phenoxy]-5-fluoropyrimidine]",–,–,–,–,–,–,–,–,–,–,–,–,–,–,50,65,10,10,–,–,"Plant response rating (0 to 100), Barley ([6]; 125 g ai/ha): 5; Plant response rating (0 to 100), Barley ([6]; 250 g ai/ha): 10; Plant response rating, Barley ([6]; 31 g ai/ha, 13 to 15 days): 0; Plant response rating, Barley ([6]; 62 g ai/ha): 5"
"FC(F)(F)c1cnn(-c2ccccc2Oc2ncc(Br)cn2)c1 [Compound 18, 5-bromo-2-[2-[4-(trifluoromethyl)-1H-pyrazol-1-yl]phenoxy]pyrimidine]",10,5,50,60,100,10,25,40,95,–,–,–,–,–,–,–,–,–,30,80,Nightshade plant response rating ([5]; 250 g ai/ha): 95
"Clc1cnc(Oc2ccccc2-n2cc(Br)cn2)nc1 [Compound 7, 2-[2-(4-bromo-1H-pyrazol-1-yl)phenoxy]-5-chloropyrimidine]",0,0,30,30,70,0,0,0,0,80,95,90,–,70,55,80,10,55,95,95,"Nightshade plant response rating ([5]; 250 g ai/ha): 98; Plant response rating, Nightshade [5]: 80; Plant response rating, Waterhemp_RES1 [3, 17]: 65; Plant response rating (0 to 100), Barley ([6]; 125 g ai/ha): 10; Plant response rating (0 to 100), Barley ([6]; 250 g ai/ha): 15; Plant response rating, Barley ([6]; 31 g ai/ha, 13 to 15 days): 0; Plant response rating, Barley ([6]; 62 g ai/ha): 0"
